# Calls of active or inactive are those of the source. No cut-off for these calls is given here.
# How the values were obtained:
# Assay type in all cases: cell-based
# [1] = molecular target: T1, Estrogen receptor (Homo sapiens) (UniProt P03372); test: Induction of ERalpha degradation in human MCF7 cells at 10 to 20 uM after 6 hrs by Western blot analysis
# T1 sequence (whole entry): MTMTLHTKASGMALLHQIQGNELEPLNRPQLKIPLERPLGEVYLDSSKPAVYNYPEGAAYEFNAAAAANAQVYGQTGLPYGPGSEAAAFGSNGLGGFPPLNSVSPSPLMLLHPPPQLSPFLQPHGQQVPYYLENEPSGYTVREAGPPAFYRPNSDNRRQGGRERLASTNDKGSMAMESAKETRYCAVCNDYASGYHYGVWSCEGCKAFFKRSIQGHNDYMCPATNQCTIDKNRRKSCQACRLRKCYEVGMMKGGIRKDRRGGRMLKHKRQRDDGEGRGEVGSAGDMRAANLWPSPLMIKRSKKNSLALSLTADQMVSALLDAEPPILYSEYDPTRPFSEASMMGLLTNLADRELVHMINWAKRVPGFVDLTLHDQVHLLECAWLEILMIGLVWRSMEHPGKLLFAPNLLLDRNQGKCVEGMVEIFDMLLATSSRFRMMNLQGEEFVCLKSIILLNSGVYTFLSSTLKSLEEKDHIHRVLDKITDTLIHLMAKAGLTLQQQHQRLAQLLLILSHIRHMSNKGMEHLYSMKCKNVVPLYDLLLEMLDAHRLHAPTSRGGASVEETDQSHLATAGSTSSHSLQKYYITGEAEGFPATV
# [2] = test system: MCF7; test: Cytotoxicity against human MCF7 cells at 20 uM after 6 hrs; settings: mcf7, 6 h
# [3] = molecular target: T1, Estrogen receptor (Homo sapiens); test: Induction of ERalpha degradation in human MCF7 cells at 10 to 20 uM after 6 hrs by Western blot analysis in presence of MG132
# [4] = molecular target: Baculoviral IAP repeat-containing protein 2 (Homo sapiens) (UniProt Q13490); test: Induction of cIAP1 degradation in human MCF7 cells at 10 to 20 uM after 6 hrs by Western blot analysis in presence of MG132
# [5] = molecular target: T2, Androgen receptor (Homo sapiens) (UniProt P10275); test: Induction of AR degradation in human MCF7 cells at 10 to 20 uM after 6 hrs by Western blot analysis
# T2 sequence (whole entry): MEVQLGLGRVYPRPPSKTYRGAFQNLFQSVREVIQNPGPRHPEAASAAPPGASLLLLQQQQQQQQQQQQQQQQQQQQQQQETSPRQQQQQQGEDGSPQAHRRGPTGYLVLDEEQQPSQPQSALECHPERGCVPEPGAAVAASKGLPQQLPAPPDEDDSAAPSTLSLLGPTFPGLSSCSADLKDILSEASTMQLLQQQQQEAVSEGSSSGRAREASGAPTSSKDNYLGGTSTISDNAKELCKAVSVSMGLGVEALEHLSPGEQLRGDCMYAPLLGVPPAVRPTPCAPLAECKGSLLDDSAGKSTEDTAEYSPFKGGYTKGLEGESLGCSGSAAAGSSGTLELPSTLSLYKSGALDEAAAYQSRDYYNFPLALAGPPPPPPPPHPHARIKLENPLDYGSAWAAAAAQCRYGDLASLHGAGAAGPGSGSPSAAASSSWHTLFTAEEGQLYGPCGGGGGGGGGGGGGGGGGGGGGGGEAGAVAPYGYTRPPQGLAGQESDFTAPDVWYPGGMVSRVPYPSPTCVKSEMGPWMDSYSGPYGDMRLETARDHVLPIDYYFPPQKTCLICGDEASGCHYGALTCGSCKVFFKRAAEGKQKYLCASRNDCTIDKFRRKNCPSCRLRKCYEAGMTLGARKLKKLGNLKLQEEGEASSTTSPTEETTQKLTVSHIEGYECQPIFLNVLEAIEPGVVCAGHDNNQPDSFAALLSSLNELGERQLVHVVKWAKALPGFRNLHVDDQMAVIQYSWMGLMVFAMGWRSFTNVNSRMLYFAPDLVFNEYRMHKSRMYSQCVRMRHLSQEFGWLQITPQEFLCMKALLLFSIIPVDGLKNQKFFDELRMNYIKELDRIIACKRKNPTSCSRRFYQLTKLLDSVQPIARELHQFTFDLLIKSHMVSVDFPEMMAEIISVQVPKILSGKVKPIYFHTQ
# [6] = molecular target: T2, Androgen receptor (Homo sapiens); test: Induction of AR degradation in human MCF7 cells at 10 to 20 uM after 6 hrs by Western blot in presence of MG132
# [7] = molecular target: T3, Aryl hydrocarbon receptor (Homo sapiens, UniProt P35869); test: Induction of AhR degradation in human MCF7 cells at 10 to 20 uM after 6 hrs by Western blot analysis; settings: mcf7, 6 h
# T3 sequence (P35869 whole entry): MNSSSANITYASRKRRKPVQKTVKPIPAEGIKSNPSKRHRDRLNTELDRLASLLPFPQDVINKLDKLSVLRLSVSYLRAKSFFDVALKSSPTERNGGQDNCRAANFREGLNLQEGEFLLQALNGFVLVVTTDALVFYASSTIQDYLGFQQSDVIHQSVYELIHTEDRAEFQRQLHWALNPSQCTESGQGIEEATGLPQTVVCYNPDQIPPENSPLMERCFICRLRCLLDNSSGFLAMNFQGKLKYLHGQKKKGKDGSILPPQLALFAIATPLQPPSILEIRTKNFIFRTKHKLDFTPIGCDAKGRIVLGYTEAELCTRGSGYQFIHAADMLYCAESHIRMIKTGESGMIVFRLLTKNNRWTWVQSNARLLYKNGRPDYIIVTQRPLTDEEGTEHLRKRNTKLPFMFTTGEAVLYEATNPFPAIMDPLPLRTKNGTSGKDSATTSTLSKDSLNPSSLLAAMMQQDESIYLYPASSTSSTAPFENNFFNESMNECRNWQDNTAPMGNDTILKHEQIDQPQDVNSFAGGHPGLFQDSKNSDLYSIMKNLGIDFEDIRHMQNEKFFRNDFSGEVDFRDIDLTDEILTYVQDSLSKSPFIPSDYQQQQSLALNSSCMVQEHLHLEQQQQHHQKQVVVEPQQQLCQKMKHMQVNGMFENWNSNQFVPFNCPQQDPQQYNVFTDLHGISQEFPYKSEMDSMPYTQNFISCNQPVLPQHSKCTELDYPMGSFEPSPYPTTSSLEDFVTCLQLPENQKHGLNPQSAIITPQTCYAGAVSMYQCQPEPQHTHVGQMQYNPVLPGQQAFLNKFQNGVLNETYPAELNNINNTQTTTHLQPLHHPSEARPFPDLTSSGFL
# [8] = molecular target: T1, Estrogen receptor (Homo sapiens); test: Induction of ERalpha degradation in human MCF7 cells assessed as ERalpha/lamin ratio level at 20 uM after 6 hrs by Western blot analysis (reference value: 100%)
# [9] = molecular target: T2, Androgen receptor (Homo sapiens); test: Induction of AR degradation in human MCF7 cells assessed as AR/lamin ratio level at 10 uM after 6 hrs by Western blot analysis (reference value: 100%)
# [10] = molecular target: T2, Androgen receptor (Homo sapiens); test: Induction of AR degradation in human MCF7 cells assessed as AR/lamin ratio level at 20 uM after 6 hrs by Western blot analysis (reference value: 100%)
# [11] = molecular target: T1, Estrogen receptor (Homo sapiens); test: Induction of ERalpha degradation in human MCF7 cells assessed as ERalpha/lamin ratio level at 10 uM after 6 hrs by Western blot analysis (reference value: 100%)
# [12] = molecular target: T3, Aryl hydrocarbon receptor; test: Induction of AhR degradation in human MCF7 cells assessed as AhR/lamin ratio level at 10 uM after 6 hrs by Western blot analysis (reference value: 100%); settings: mcf7, 6 h
# [13] = molecular target: T3, Aryl hydrocarbon receptor; test: Induction of AhR degradation in human MCF7 cells assessed as AhR/lamin ratio level at 20 uM after 6 hrs by Western blot analysis (reference value: 100%); settings: mcf7, 6 h
# Sequence of Baculoviral IAP repeat-containing protein 2 (Homo sapiens) (Q13490 whole entry): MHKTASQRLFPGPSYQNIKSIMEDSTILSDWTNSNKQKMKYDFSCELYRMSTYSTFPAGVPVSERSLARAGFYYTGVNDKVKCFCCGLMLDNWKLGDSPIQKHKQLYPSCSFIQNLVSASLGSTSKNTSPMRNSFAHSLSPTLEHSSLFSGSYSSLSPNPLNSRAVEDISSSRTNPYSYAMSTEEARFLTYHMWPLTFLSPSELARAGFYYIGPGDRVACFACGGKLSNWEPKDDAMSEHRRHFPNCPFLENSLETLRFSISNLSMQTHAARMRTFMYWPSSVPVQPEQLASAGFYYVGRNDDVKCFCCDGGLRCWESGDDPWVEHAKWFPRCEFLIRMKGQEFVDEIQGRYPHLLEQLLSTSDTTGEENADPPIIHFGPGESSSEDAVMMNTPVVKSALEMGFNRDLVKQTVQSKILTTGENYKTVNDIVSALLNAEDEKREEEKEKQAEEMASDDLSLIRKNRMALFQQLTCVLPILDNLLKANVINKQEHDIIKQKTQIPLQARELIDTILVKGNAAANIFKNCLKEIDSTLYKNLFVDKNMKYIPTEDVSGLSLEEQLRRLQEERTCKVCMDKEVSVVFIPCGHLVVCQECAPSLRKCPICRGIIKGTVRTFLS
compound,measurement,setting,value
CC[C@@H](C)[C@@H]1NC(=O)[C@H](NC(=O)[C@H](N)CCCCNC(=O)CCNC(=O)CCNC(=O)CCNC(=O)CCNC(=O)CCNC(=O)[C@H](NC(=O)[C@H]2CCCN2C(=O)[C@@H](NC(=O)[C@@H](C)NC)C2CCCCC2)C(c2ccccc2)c2ccccc2)CSSC[C@@H](C(=O)N[C@@H](CCCNC(=N)N)C(=O)N[C@@H](CC(C)(C)C)C(=O)N[C@@H](CC(C)C)C(=O)N[C@@H](CCC(N)=O)C(=O)NCC(=O)NCC(=O)NCC(=O)N[C@@H](CCCNC(=N)N)C(=O)N[C@@H](CCCNC(=N)N)C(=O)N[C@@H](CCCNC(=N)N)C(=O)N[C@@H](CCCNC(=N)N)C(=O)N[C@@H](CCCNC(=N)N)C(=O)N[C@@H](CCCNC(=N)N)C(=O)N[C@H](CCCNC(=N)N)C(N)=O)NC(=O)[C@H](CC(C)C)NC1=O,Activity,[1],Active
same,Activity,[2],Non-toxic
same,Activity,[3],inactive
same,Activity,[4],inactive
same,Activity,[5],Active
same,Activity,[6],inactive
same,Activity,[7],Not Active
same,Activity,[8],64%
same,Activity,[9],77%
same,Activity,[10],54%
same,Activity,[11],82%
same,Activity,[12],109%
same,Activity,[13],98%
